This note sets out measurements from patent publication EP1080724A1, “MTP ACTIVITY-LOWERING COMPOSITIONS” (Nippon Shinyaku Co., Ltd., priority 1998, dated 1999).

Structures can show the parent of a compound that is named as a salt.

Assay [1] concerns HepG2 cells. The experiment in a line: TG antisecretory activity: secreted triglyceride from labeled lipid in medium. Type of assay: cell-based. Particulars: 10 µM, 24 hours of culture, control group 161.2± 2.2. The procedure: HepG2 cells were cultured in DME medium supplemented with 1% BSA and 0.5 mM oleic acid for 24 hours. Then, the medium was changed to 1% BSA-DME containing 10 µM of the amino acid of the invention and simultaneously 0.5 µci of [^14C] acetic acid was added. The cells and medium were recovered after 24 hours of culture. The recovered cells were homogenized by sonication, and after quantitation of protein, the amount of secreted triglyceride (TG) was determined from the amount of labeled lipid in the medium.

Assay [2] deals with MTP. The experiment in a line: MTP activity-lowering activity (MTP activity in liver homogenate of orally dosed rats, method of Wetterau). Type of assay: in vivo. As to conditions: SD rats, control group 9.09±1.0. The procedure:
SD rats weighing about 200 g in groups of 6 were given 20 mg or 60 mg of the hydrochloride of the amino acid of the invention in 10 ml of water in 3 divided doses daily for 2 weeks. Thereafter, the liver was excised and homogenized using a homogenizing buffer (50 mM Tris (pH 7.4), 50 mM potassium chloride, […], leupeptin (5 µg/ml) and 2 mM phenylmethylsulfonyl fluoride) and the homogenate was centrifuged to give a liver homogenate. This liver homogenate was adjusted to a protein concentration of about 2 mg/mL with the same homogenizing buffer and 1 part of deoxycholate solution (0.56%, pH 7.5) was added to 10 parts of the homogenate. The reaction was then carried out at 4°C for 30 minutes, whereby MTP was liberated from the microsomal fraction. The membrane fraction was then removed by centrifugation to give a supernatant. This supernatant was diluted with Tris buffer (a buffer solution containing 15 mM Tris (pH 7.4), 40 mM NaCl, 1 mM EDTA, 0.02% NaN3) and dialyzed against the same buffer at 4°C overnight. The dialysate thus obtained was analyzed for MTP activity by the method of J. R. Wetterau [Science, 258, 999 (1992)].

The test system of assay [3] is HepG2 cells. Briefly: Apo B antisecretory activity (1): apo B secreted into medium, ELISA. Type of assay: cell-based, human. Particulars: for Apo B secretions (µg/well): HepG2 cells, 24 hours culture, control group 9.92±0.80. The procedure: HepG2 cells (100×10^4 cells/dish) were sown on 3.5 cm dishes and precultured using 1 ml DME (containing 10% FCS) medium per dish. Following this preculture, the cells were washed with DME medium twice, added to the test medium, and cultured at 37°C under 95% air-5% carbon dioxide for 24 hours. The test medium was prepared by dissolving cycloalliin in dimethyl sulfoxide and diluted with DME medium containing 1% BSA and 0.5 mM oleic acid to a final cycloalliin concentration of 10^-6 M or 10^-4 M.
After 24 hours' culture, the medium was recovered and the amount of apo B secreted into the medium was determined by ELISA. Thus, anti-human apo B antibody (a 100-fold dilution) was distributed into a 96-well ELISA plate, 100 µL per well, and incubated at 37°C for 2 hours. Then, 100 µL/well of Block Ace was added and the plate was further incubated at 37°C for 2 hours. The wells were washed with PBS-Tween × 3 and 100 µL each of apo B standard solution and HepG2 culture were added, followed by further incubation at 4°C for 16 hours. After the wells were washed with PBS-Tween × 3, 100 µL/well of anti-human apo B marker antibody (a 200-fold dilution) was added and the plate was incubated at 37°C for 2 hours. The wells were washed with PBS-Tween × 3, then 100 µL/well of the substrate solution was added, and the plate was incubated at 25°C for 30 minutes. The reaction was stopped by adding 50 µL of 4.5 M H2SO4 and the absorbance at 482 nm was measured to estimate the amount of apo B secretion.
(In general: ELISA stands for enzyme-linked immunosorbent assay.)

Assay [4] concerns HepG2 cells. The experiment in a line: Apo B antisecretory activity (2): apo B secretions, ELISA. Type of assay: cell-based. Particulars: 10 µM; for Apo B secretions (ng/mg protein) After 24 hr of culture: control group 2544±425; for Apo B secretions After 24 hr of culture (%) / Apo B secretions After 48 hr of culture (%): percent of control group (100); for Apo B secretions (ng/mg protein) After 48 hr of culture: control group 2080±110. The procedure: HepG2 cells were cultured in DME medium supplemented with 1% BSA and 0.5 mM oleic acid for 24 hours. Then, the medium was changed to 1% BSA-DME medium containing 10 µM of the amino acid of the invention and 0.5 µci of [^14C] acetic acid was simultaneously added. The cells and medium were recovered after 24 hours or 48 hours of culture. The recovered cells were homogenized by sonication, and after quantitation of protein, the amount of apo B secretions was determined by ELISA.

[5] abbreviates: 60 mg in 10 ml of water in 3 divided doses daily for 2 weeks.

Consider `C[S+]([O-])CCC(N)C(=O)O` (racemic) [DL-methionine sulfoxide], for which, in assay [1], the “TG secretions ([^14C]dpm × 10^-2/mg protein)” value (“TG secretions” below) is 72.1± 8.5 [^14C]dpm × 10^-2/mg protein.

Consider `C[C@H]1C[S@+]([O-])C[C@@H](C(=O)O)N1` [Cycloalliin HCl, (1S,3R,5S)-5-methyl-1,4-thiazane-3-carboxylic acid 1-oxide], for which the “MTP activity (%)” value was found to be 6.12±0.7 % in assay [2] (20 mg in 10 ml of water in 3 divided doses daily for 2 weeks) and 4.92±1.0 % in assay [2] (setting [5]).

Consider `C[C@H]1C[S@+]([O-])C[C@@H](C(=O)O)N1` [Cycloalliin, (1S,3R,5S)-5-methyl-1,4-thiazane-3-carboxylic acid 1-oxide], for which the “Apo B secretions (µg/well)” value in assay [3] (10^-4 M) was determined as 7.67±1.31 µg/well; in assay [3] (10^-6 M), 7.54±1.13 µg/well. In addition, in assay [3] (summary of Table 2), the “apo B secretion (result in words)” value is given as “significant suppression”.

Turning to `CCSC[C@H](N)C(=O)O` [S-ethyl-L-cysteine], in assay [4], the “Apo B secretions (ng/mg protein) After 24 hr of culture” value turned out to be 2390±615 ng/mg protein, the “Apo B secretions After 24 hr of culture (%)” value was determined as 93.9%, the “Apo B secretions (ng/mg protein) After 48 hr of culture” value was 994±111 ng/mg protein and the “Apo B secretions After 48 hr of culture (%)” value amounted to 47.8%. Further, in assay [1], the “TG secretions” value is 102.2± 7.1 [^14C]dpm × 10^-2/mg protein.

In the case of `CSC[C@H](N)C(=O)O` [S-methyl-L-cysteine HCl, S-methyl-L-cysteine], the “MTP activity (%)” value in assay [2] (setting [5]) was 5.68±0.6 %.

For `CSC[C@H](N)C(=O)O` [S-methyl-L-cysteine], in assay [4], the “Apo B secretions (ng/mg protein) After 24 hr of culture” value stood at 2511±173 ng/mg protein, the “Apo B secretions After 24 hr of culture (%)” value is recorded as 98.7%, the “Apo B secretions (ng/mg protein) After 48 hr of culture” value was 1906±122 ng/mg protein and the “Apo B secretions After 48 hr of culture (%)” value came out at 91.6%. Besides, the “TG secretions” value in assay [1] is 128.2±14.6 [^14C]dpm × 10^-2/mg protein.

On to `CCCSC[C@H](N)C(=O)O` [S-n-propyl-L-cysteine], for which, in assay [4], the “Apo B secretions (ng/mg protein) After 24 hr of culture” value came out at 2157± 86 ng/mg protein, the “Apo B secretions After 24 hr of culture (%)” value was found to be 84.8%, the “Apo B secretions (ng/mg protein) After 48 hr of culture” value amounted to 555± 23 ng/mg protein and the “Apo B secretions After 48 hr of culture (%)” value is 26.7%. In addition, the “TG secretions” value in assay [1] was 99.0± 9.3 [^14C]dpm × 10^-2/mg protein.

For the molecule “S-methyl-L-cysteine sulfoxide [S-methyl-L-cysteine sulfoxide HCl]”, in assay [2] (setting [5]), the “MTP activity (%)” value was 5.43±0.6 %.

Turning to S-n-propyl-L-cysteine sulfoxide, the “TG secretions” value in assay [1] was 105.8±18.9 [^14C]dpm × 10^-2/mg protein.
